Assay results reported in PMC5880808, “A lever-like transduction pathway for long-distance chemical- and mechano-gating of the mechanosensitive Piezo1 channel” (Nature Communications, 2018).

Assays:
mPiezo1 Q1344A = molecular target: T1, mPiezo1 Q1344A (Mus musculus, UniProt E2JF22, Q1344A); test: Fura-2 single-cell Ca2+ imaging, Q1344A mutant; assay type: cell-based; conditions: 1 mM Jedi1, 30 µM Yoda1
T1 construct: The full-length mPiezo1 has 2547 amino acids in each monomer; mCherry; expressed in transfected cells; host or cells: HEK293T
Protocol: Fura-2 single-cell Ca^2+ imaging was performed according to the previous protocol. In brief, mCherry-Piezo1 cDNA (1 μg)-transfected HEK293T cells were plated onto 12-mm round glass coverslips, which were coated with poly-D-lysine and placed in 24-well plates, and subject to Fura-2 single-cell Ca^2+ imaging about 36 h post transfection. Cells were washed with buffer containing 1× HBSS (1.3 mM Ca^2+) and 10 mM HEPES (pH 7.2), incubated with 2.5 μM Fura-2 and 0.05% Pluronic F-127 (Life Technologies) for 30 min, then washed again with the previously mentioned buffer. The coverslip was mounted into an inverted Nikon-Tie microscope equipped with a CoolSNAP charge-coupled devise (CCD) camera and Lambda XL light box (Sutter Instrument), and mCherry-positive and -negative cells were selected for measurement of the 340/380 ratio with a ×20 objective (numerical aperture 0.75) using the MetaFluor Fluorescence Ratio Imaging software (Molecular Device).

mPiezo1 = molecular target: T2, mPiezo1 (Mus musculus, UniProt E2JF22); test: Whole-cell patch clamp, gap-free recording, compound puffed onto cells; assay type: cell-based; conditions: for compound-evoked whole-cell current: mPiezo1-mRuby2-expressing HEK293T, 1 mM Jedi1 or 30 μM Yoda1 puffed
T2 construct: The full-length mPiezo1 has 2547 amino acids in each monomer; expressed in transfected cells; host or cells: HEK293T
Protocol: (§1) Protocols for HEK293T cell culture, transient transfection, and patch-clamp experiments with an Axopatch 200B amplifier (Axon Instruments) or HEKA EPC10 were essentially similar to how previously described[6],[8]. […] The extracellular solution was composed of (in mM) 133 NaCl, 3 KCl, 2.5 CaCl2, 1 MgCl2, 10 HEPES (pH 7.3 with NaOH), and 10 glucose. All experiments were carried out at room temperature. Currents were sampled at 20 kHz, filtered at 2 kHz using the Clampex 10.4 software (Axon Instruments) or Patchmaster software. Leak currents before mechanical stimulations were subtracted offline from the current traces.
Stock solutions of Jedi1 (100 mM), Jedi2 (100 mM), and Yoda1 (30 mM) were solubilized in DMSO and diluted to the desired final concentrations as indicated in the figure legends using external or internal solutions. In Figs. 3a, 5b, and 6e, the compound solutions were puffed onto the cells using a multichannel perfusion system (MPS-2, World Precision Instruments) while continuously recording using a gap-free mode. In other conditions, the compounds were directly added to the recording chamber or pipette solution, and the currents were recorded within 10 min. In Figs. 5b and 6e, we used the Piezo1-KO-HEK cell line in which the endogenous Piezo1 gene is disrupted.

[1] = tested on: mPiezo1 loop deletion mutants ΔL15-16 (657-677) and ΔL19-20 (870–921); test: Patch clamp (chemical-, poking- and stretching-induced currents), loop deletion mutants; assay type: cell-based, mouse
Protocol: as §1
Mechanical stimulation was delivered to the cell during the patch-clamp recording at an angle of 80° using a fire-polished glass pipette (tip diameter 3–4 μm) as previously described[5],[6]. […] A series of mechanical steps in 1 μm increments was applied every 20 s and currents were recorded at a holding potential of −70 mV. […] In the step-wise poking experiment, the patch was readily lost when the cell was broken at the end of the poking. […]
Stretch-activated currents were recorded in the cell-attached patch-clamp configuration as previously described. […] Stretch-activated channels were recorded at a holding potential of −80 mV with pressure steps from 0 to −100 mm Hg (−10 mm Hg increments), and 4–11 recording traces were averaged per cell for analysis. […]

[2] = tested on: mPiezo1 loop deletion mutants ΔL15-16 (657-677) and ΔL19-20 (870–921); test: FLIPR GCAMP6s Ca2+ dose response, loop deletion mutants; assay type: cell-based, mouse; conditions: ΔL15-16 and ΔL19-20, FLIPR
Protocol: HEK293T cells were grown in Dulbecco’s modified Eagle medium containing 4.5 mg/ml glucose, 10% fetal bovine serum, and 1% penicillin/streptomycin. Cells were seeded in 50 μg/ml poly-D-lysine-coated 96-well plates (3 × 10^4 cells/well) and allowed to grow for about 18 h, and then co-transfected with a total of 250 ng cDNA containing Piezo1 or Piezo2 and GCaMP6s using Lipofectamine 2000 (Invitrogen, Life Technology). Two days after transfection the cells were washed with buffer containing 1× Hanks’ balanced salt solution (HBSS; 1.3 mM Ca^2+) and 10 mM HEPES (pH 7.2). The 96-well plates were then transferred to the FLIPR Tetra (Molecular Device) for monitoring the GCAMP6s fluorescence before and after addition of the compounds that were prepared in separate compound plates. For the initial screening, we screened about 3000 compounds derived from either the chemical library collected in Dr. Yu Rao’s lab, which is composed of different classes of heterocycles, including various drug scaffold or the Maybridge Ro3 Diversity Fragment Library purchased from Maybridge (Cambridge, UK), which consists of 2500 fragment compounds with a molecular weight below 350 and high rule of three compliance. Each compound was tested at a final concentration of 200 μM. Approximately 20 positive hits were selected for further testing in Piezo1-, Piezo2-, or vector-transfected cells. […]

T2 sequence (E2JF22 whole entry): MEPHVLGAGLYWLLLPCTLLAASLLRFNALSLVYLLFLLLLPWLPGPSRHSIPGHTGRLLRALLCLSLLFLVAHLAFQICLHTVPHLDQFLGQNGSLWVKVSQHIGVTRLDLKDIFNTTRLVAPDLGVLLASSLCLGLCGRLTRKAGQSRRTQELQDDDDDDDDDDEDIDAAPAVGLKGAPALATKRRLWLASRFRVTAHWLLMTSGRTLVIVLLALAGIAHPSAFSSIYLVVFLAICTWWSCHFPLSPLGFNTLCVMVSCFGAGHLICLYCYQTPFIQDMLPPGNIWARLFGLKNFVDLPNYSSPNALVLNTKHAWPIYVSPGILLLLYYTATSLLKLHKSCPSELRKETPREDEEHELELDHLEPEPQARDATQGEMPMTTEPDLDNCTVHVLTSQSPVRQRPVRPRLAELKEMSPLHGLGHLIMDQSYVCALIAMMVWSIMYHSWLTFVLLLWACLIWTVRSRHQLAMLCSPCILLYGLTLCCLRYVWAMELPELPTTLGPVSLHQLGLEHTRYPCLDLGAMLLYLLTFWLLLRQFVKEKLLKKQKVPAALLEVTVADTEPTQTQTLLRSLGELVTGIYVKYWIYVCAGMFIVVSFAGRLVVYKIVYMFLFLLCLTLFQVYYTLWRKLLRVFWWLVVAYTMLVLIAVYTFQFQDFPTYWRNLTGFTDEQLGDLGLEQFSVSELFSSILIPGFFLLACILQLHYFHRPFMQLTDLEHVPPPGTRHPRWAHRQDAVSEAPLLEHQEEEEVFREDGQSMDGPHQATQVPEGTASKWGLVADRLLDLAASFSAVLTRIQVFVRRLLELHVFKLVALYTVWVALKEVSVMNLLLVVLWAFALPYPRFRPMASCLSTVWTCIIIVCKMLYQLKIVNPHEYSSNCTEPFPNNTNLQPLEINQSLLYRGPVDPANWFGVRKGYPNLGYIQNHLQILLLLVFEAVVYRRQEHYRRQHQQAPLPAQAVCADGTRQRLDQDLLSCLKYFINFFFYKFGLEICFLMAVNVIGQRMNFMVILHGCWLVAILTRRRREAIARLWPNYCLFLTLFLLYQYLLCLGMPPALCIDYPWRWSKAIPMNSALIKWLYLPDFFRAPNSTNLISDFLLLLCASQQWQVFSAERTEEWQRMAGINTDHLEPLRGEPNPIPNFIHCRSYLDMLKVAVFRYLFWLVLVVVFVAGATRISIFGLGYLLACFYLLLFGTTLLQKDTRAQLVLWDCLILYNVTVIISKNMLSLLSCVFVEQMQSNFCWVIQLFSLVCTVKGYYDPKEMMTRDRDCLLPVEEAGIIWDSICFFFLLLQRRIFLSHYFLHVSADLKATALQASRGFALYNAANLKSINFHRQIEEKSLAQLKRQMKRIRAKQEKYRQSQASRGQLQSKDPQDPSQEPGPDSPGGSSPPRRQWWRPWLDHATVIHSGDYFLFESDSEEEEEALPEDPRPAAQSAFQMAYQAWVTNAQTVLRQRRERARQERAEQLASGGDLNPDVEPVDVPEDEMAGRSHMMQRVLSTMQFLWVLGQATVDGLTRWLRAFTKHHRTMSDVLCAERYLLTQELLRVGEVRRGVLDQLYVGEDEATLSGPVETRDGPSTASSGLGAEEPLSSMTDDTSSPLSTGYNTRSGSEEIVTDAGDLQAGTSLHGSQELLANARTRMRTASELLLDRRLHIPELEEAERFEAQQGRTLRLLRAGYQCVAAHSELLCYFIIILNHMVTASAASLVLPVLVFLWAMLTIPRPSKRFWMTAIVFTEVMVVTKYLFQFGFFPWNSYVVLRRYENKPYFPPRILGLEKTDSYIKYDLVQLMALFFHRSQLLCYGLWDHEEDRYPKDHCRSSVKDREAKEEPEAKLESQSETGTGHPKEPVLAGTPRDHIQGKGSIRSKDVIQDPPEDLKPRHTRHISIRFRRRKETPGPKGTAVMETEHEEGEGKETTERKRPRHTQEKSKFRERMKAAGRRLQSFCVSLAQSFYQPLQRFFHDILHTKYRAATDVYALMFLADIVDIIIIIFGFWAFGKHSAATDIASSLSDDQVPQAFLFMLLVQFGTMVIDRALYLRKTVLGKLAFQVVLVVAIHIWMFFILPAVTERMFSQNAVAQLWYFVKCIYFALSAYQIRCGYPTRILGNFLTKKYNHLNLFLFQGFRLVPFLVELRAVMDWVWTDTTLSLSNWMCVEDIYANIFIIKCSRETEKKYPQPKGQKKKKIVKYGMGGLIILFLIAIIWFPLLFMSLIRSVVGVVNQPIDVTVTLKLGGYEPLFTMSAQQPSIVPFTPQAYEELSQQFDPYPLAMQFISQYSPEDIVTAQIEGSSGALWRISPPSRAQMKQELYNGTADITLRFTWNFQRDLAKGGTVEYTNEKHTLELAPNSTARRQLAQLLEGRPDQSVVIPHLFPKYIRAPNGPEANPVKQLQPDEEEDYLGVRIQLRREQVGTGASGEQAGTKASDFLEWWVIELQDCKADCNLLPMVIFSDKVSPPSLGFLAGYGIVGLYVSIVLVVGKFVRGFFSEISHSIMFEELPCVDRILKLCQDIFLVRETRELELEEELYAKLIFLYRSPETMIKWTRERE
T1 sequence (E2JF22 whole entry Q1344A): as the sequence (E2JF22 whole entry) above, with Q1344A counted along it

Row | SMILES | effect of the Q1344A mutation on compound-induced Ca2+ responses (mPiezo1 Q1344A) | compound-evoked whole-cell current (mPiezo1) | potentiation of stretching-induced currents of loop deletion mutants ([1]; ΔL15-16 and ΔL19-20, −80 mV) | Ca2+ response of loop deletion mutants [2] | onset and decay of evoked currents relative to Yoda1-induced currents (mPiezo1; 1 mM Jedi1 vs 30 μM Yoda1) | whole-cell currents or potentiation of poking- or stretching-induced currents in loop deletion mutants ([1]; ΔL15-16 and ΔL19-20 mutant-transfected cells)
1 | Clc1cccc(Cl)c1CSc1nnc(-c2cnccn2)s1 [Yoda1, reference compound] | did not affect | evoked inward currents | failed to potentiate |  |  | 
2 | Cc1oc(-c2ccccc2)cc1C(=O)O [Jedi1] | did not affect | evoked inward currents |  | no dose-dependent Ca^2+ responses | more rapid onset and faster decay | failed to elicit
3 | Cc1oc(-c2cccs2)cc1C(=O)O [Jedi2] |  |  |  | no dose-dependent Ca^2+ responses |  | 
